Assay results published in patent US20260191819A1, “COMPOSITION FOR THE TREATMENT OF THE HUMAN PAPILLOMAVIRUS INFECTION (HPV)” (LO.LI. PHARMA S.R.L., priority 2022, published 2026).

What was measured:
viral protein E7 = settings: cited from earlier work
human cervical lesions = settings: EGCG tablets (200 mg), 8-12 weeks, cited from earlier work
[1] = tested on: epithelial cervical cell line infected with high-risk HPV (TLC1 and cervical cancer lines such as Hela and Me180); settings: dose-dependent manner; cited from earlier work
p53 protein = settings: cited from earlier work
Hela cells = test: Annexin V/7-AAD staining, apoptosis in Hela cells; type: cell-based, human; settings: 48 hr, EGCG 50 mcg/ml, Fol 900 nM, B12 1000 nM, Hyal 10 mcg/ml, FIG. 1
Description: The combined action of epigallocatechin gallate (EGCG) and at least one the following other agents: folic acid, vitamin B12, hyaluronic acid, in respect to the single substance, has been tested in vitro in immortalized cervical cancer cell line (HeLa).
The cells were seeded in […] flasks in low glucose DMEM, to which had been added FBS (Fetal Bovine Serum) 10%, L-Glu (L-glutamine) 1%, Pen/Strep (penicillin/streptomycin) 1%. The cells were kept in an incubator at a temperature of 37° C., 5% carbon dioxide and 95% humidity and maintained in culture, as described above, until they reached 50% confluency. On the day of the experiment the cells were treated as follows: • 1. […]
Apoptosis (cell death) was evaluated after 48 hours of treatment using the Annexin V kit. The expression of onco-suppressor genes (p53 and/or pRB) and/or viral E6 and/or E7 genes was evaluated after 48 hours of treatment through use of real time PCR. […]
Hela cells were cultured at confluence into 25 cm^2 flasks (Falcon, Becton Dickinson Labware, Franklin Lakes, NJ, USA) in complete medium. […] After 48 hr of treatment, cell status was assessed through use of the FITC Annexin V Apoptosis Detection Kit I according to the instructions of the manufacturer (BD Pharmingen™). […]

vaginal atrophy = settings: 12 post-menopausal women, 3-month treatment; cited from earlier work
cell model in vitro = settings: cited from earlier work
[2] = cytology, colposcopy, histology, HPV DNA test

Row | Substance | level of viral protein E7 expression (viral protein E7) | treated women with improvement of general clinical status (human cervical lesions; 88 women) | women with moderate lesions responding positively to the treatment (human cervical lesions; [2]) | women with serious lesions responding positively to the treatment (human cervical lesions; [2]) | apoptosis, i.e., cell death [1] | cellular growth [1] | level of p53 protein expression (p53 protein) | apoptosis (cell death) compared to control (Hela cells) | mucous membrane (vaginal atrophy) | symptoms related to vaginal atrophy (itching, burning, and dyspareunia) (vaginal atrophy) | process of wound healing in comparison with the control (cell model in vitro)
1 | (−)-epigallocatechin gallate [EGCG] | reduces that of the viral protein E7 | 60% | 100% | 71% | promotes apoptosis | inhibits cellular growth | increases the level of p53 protein expression | no differences in apoptosis levels | – | – | –
2 | hyaluronic acid | – | – | – | – | – | – | – | significantly increased apoptosis | restores the mucous membrane | dramatically reducing symptoms | significantly accelerates the process of wound healing
